US8367680B2, “Antibacterial small molecules and methods for their synthesis” (Wisconsin Alumni Research Foundation, priority 2008, dated 2013)
≈ marks a conversion by molar mass, not a printed value. Read-outs that look alike come from different tables or passages of the source.

System: MRSA
Details: Staphylococcus aureus

| MIC (read-out: Solution MIC) | MIC (read-out: Support MIC) | Structure (SMILES) |
| --- | --- | --- |
| 54 ± 1 µM (≈ 18.9 µg/mL) | 25 to 50 µM (≈ 8.73 to 17.5 µg/mL) | NC(=O)COc1cccc(C(=O)/C=C/c2cccc(C(F)(F)F)c2)c1 [Compound B18] |
| 0.6 ± 0.2 µM (≈ 0.199 µg/mL) |  | O=C(O)c1cn(C2CC2)c2cc(N3CCNCC3)c(F)cc2c1=O [ciprofloxacin] |
| 5 ± 1 µM (≈ 1.69 µg/mL) |  | CC(=O)NC[C@H]1CN(c2ccc(N3CCOCC3)c(F)c2)C(=O)O1 [linezolid] |
